Test [1] has as its system CD4+ Treg vs CD4+ Tconv cells. The test can be described thus: STAT5 phosphorylation, selectivity / activity profile Treg versus CD4+ Tconv cells, human PBMC. Format: cell-based. The procedure, abridged:
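Fresh human PBMC from a healthy donor, serum-starved 1 h at 4 °C, then exposed to serial dilutions of IL-2 variants for 30 min at 37 °C. After fixation/permeabilization, cells stained for CD4, CD25, FOXP3 and pSTAT5 and analysed by flow cytometry. Treg (CD4+/Foxp3+/CD25high) and Tconv (CD4+/Foxp3−/CD25low) gated; read-out is percent pSTAT5-positive cells.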

The subject of test [2] is CD4+/Foxp3+/CD25+ Treg, CD4+/Foxp3-/CD25+ Teff and CD4+/Foxp3-/CD25- naive T cells. Kind of test: STAT5 phosphorylation in three CD4+ T cell subsets (Treg, CD4 effector, CD4 naive), human PBMC. Format: cell-based. An excerpt: In addition to being assessed for their ability to differentially stimulate Stat5 phosphorylation in CD4 positive Treg (CD4+/Foxp3+/CD25^high) versus Tconv (CD4+/Foxp3−/CD25^low) cells, two variants, P-0511 and P-0512, were further assayed for their ability to stimulate other effector T and NK cells, including CD4 positive Teff (CD4+/Foxp3-/CD25+), CD8 cytotoxic T effector and NK cells in comparison to wild-type IL-2 (P-0250) and three IL-2 benchmark molecules containing V91K, N88R, N88D respectively.
After human PBMC Cells were treated with serial dilutions of test compounds, fixed and permeabilized, washed, and stained with a mixture of anti-CD25-PE, anti-FOXP3-APC, anti-pSTAT5-FITC, and anti-CD4-PerCP-Cy5.5 antibodies, the flow cytometry analysis was gated into CD4+/Foxp3+/CD25+, CD4+/Foxp3−/CD25+, CD4+/Foxp3−/CD25− groups for the Treg, CD4 effector, and CD4 naive T cell subsets, respectively. Data are expressed as a percent of pStat5 positive cells in gated population and illustrated in FIG. 9.

The target in a further test is T1, IL-2Rβ and γc complex (Homo sapiens, UniProt P14784+P31785).
T1 construct: IL-2R6-ECD (NP_000869); γc-ECD (NP_000197)
T1 sequence (P14784 27-240 limits assumed): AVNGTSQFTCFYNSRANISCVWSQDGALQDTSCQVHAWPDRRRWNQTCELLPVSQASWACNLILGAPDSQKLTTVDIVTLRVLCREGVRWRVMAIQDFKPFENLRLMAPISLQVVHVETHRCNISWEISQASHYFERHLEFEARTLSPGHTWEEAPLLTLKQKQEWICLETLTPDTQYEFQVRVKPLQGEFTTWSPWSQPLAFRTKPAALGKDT
T1 sequence (P31785 23-262 limits assumed): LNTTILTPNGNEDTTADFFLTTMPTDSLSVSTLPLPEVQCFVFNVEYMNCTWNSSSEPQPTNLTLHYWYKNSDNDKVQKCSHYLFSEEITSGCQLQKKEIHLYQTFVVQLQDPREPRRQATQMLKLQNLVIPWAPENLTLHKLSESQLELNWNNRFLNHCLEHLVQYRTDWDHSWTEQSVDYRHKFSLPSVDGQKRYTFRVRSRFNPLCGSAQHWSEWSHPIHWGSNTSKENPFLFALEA
Kind of test: ELISA binding to IL-2Rβ and γc complex. The procedure:
Briefly, non-covalent complex of IL-2R6-ECD (NP_000869) and γc-ECD (NP_000197) through heterodimeric Fc chains was coated onto the wells of Nunc Maxisorp 96-well microplates at 2 μg/well. After overnight incubation at 4° C. and blocking with superblock (ThermoFisher), 3-fold serial dilutions of IL-2 Fc fusion proteins starting at either 100 or 270 nM were added to each well at 100 Following a one-hour incubation at room temperature, biotin mouse anti-human IL-2 Ab (BD BioSciences) at 1 μg/ml was added to each well followed by incubation with HRP-Avidin (ThermoFisher) at 1 μg/ml for 1 hour. Wells were thoroughly aspirated and washed three times with PBS/0.05% Tween-20 following each step. Finally, 100 TMB substrate was added to each well; the plate was developed at room temperature in the dark for 10 minutes, and 100 of stop solution (2N Sulfuric acid, Ricca Chemical) was added. Absorbance was determined at 450 nm; curves were fit using Prism software (Graph Pad) and illustrated in FIG. 11E.
For orientation: An ELISA detects its analyte on a solid surface through an enzyme-linked reagent.

For another test, the system named is Treg cells. The test can be described thus: Dose-response pharmacodynamics of Treg cells in mice after a single injection (Example 10). The test is classed as in vivo, mouse. The procedure: Following a single subcutaneous administration of vehicle (PBS) or P-0511 (1, 0.3, 0.1, or 0.03 mg/kg) to female Balb/C mice (n=5/group), peripheral blood was collected on day −2 as baseline, and post dose on days 3, 5, and 7. On day 7, mice were sacrificed, and spleens were harvested. Blood lymphocyte phenotyping, proliferation and expansion were measured by flow cytometry at each timepoint using fresh whole blood.

Like-named read-outs stand apart in the source and are kept apart here.

“P-0511: IL-2 L19H/S125I/Q126E Fc fusion, SEQ ID NO: 213”: the “activity profile / selectivity window Treg over CD4+ Tconv (in words)” value in test [1] is reported as “further widened the Treg selectivity window”. For the same substance, the “Treg Selectivity” value in test [1] (Isoleucine-125 constructs) is reported as “Yes”. Also, the “pSTAT5 activity profile in Treg, Teff and naive CD4 T cell subsets (in words)” value in test [2] is “preferential activation of Treg over Teff”; in test [2] (listed as P-511), “superior to both Benchmark-2 and -3”. Besides, the “binding to IL-2 dimeric receptor complex, EC50” value with IL-2Rβ and γc complex was “did not show appreciable binding”. Also, the “proliferation of Treg cells (percentage of Ki67 positive cells)” value with Treg cells (0.03 mg/kg single s.c., Balb/C mice) is “minimal effect”; in the test on Treg cells (1, 0.3, or 0.1 mg/kg single s.c., Balb/C mice) it was “dose-dependent increases”. Besides, the results for the “Treg/Tconv ratio at peak, based on cell count” value in the test with Treg cells (0.1 mg/kg), in the test on Treg cells (0.3 mg/kg) and in the test with Treg cells (1 mg/kg) were 0.06, 0.18 and 0.27, respectively. In addition, the “Treg as percentage of total lymphocytes at the peak” value in the test on Treg cells (0.1 mg/kg single dose) is 1.4%; with Treg cells (0.3 mg/kg single dose) it was 3.1%; in the test on Treg cells (1 mg/kg single dose), 4.5%. Further, the “expression of Treg functional markers CD25 and FoxP3 (MFI)” value with Treg cells (single s.c. dose, Balb/C mice) is given as “increased dose-dependently”.

The values are drawn from patent US20220170028A1, “NOVEL INTERLEUKIN-2 VARIANTS AND BIFUNCTIONAL FUSION MOLECULES THEREOF” (Cugene Inc, priority 2019, published 2022).
